According to US12692269B2, “Therapeutic compounds” (Genentech, Inc., priority 2019, dated 2026):

Columns and labels:
Format in all cases: binding
[1] = target: TEAD1 YAP50-100 (Homo sapiens, UniProt P28347); experiment: TEAD1-YAP HTRF (TR-FRET) protein-protein interaction assay; details: TEAD1, YAP peptide 50-100, HTRF; for EC50: read-out: TEAD1 YAP50-100 HTRF combined: EC50
Outline: (§1)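 His-tagged TEAD YAP-binding domain (aa 217-447) pre-bound to Eu anti-His tracer, incubated with compound 30 min, then biotinylated YAP (aa 50-100) or TAZ (aa 13-57) peptide with streptavidin-XL665 added for 60 min at room temperature. TR-FRET read at 665/615 nm; IC50 or EC50 from four-parameter fit.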

[2] = target: TEAD4 YAP50-100 (Homo sapiens, UniProt Q15561); experiment: TEAD4-YAP HTRF (TR-FRET) protein-protein interaction assay; details: TEAD4, YAP peptide 50-100, HTRF; for EC50: read-out: TEAD4 YAP50-100 HTRF combined: EC50
Outline: as §1

[3] = target: TEAD3 YAP50-100 (Homo sapiens, UniProt Q99594); experiment: TEAD3-YAP HTRF (TR-FRET) protein-protein interaction assay; details: TEAD3, YAP peptide 50-100, HTRF; for EC50: read-out: TEAD3 YAP50-100 HTRF combined: EC50
Outline: as §1

[4] = target: TEAD2 YAP50-100 (Homo sapiens, UniProt Q15562); experiment: TEAD2-YAP HTRF (TR-FRET) protein-protein interaction assay; details: TEAD2, YAP peptide 50-100, HTRF; for EC50: read-out: TEAD2 YAP50-100 HTRF combined: EC50
Outline: as §1

[5] = target: TEAD1 TAZ (amino acids 13-57) (Homo sapiens, UniProt P28347); experiment: TEAD1-TAZ HTRF (TR-FRET) protein-protein interaction assay; details: for TEAD1 TAZ HTRF combined: Max % Inhibition: TEAD1, TAZ peptide; for EC50: TEAD1-TAZ HTRF, TR-FRET 665 nm/615 nm, read-out: TEAD1 TAZ HTRF combined: EC50
Outline: as §1

[6] = target: TEAD2 TAZ (amino acids 13-57) (Homo sapiens, UniProt Q15562); experiment: TEAD2-TAZ HTRF (TR-FRET) protein-protein interaction assay; details: for TEAD2 TAZ HTRF combined: Max % Inhibition: TEAD2, TAZ peptide; for EC50: TEAD2-TAZ HTRF, TR-FRET 665 nm/615 nm, read-out: TEAD2 TAZ HTRF combined: EC50
Outline: as §1

[7] = target: TEAD3 TAZ (amino acids 13-57) (Homo sapiens, UniProt Q99594); experiment: TEAD3-TAZ HTRF (TR-FRET) protein-protein interaction assay; details: for TEAD3 TAZ HTRF combined: Max % Inhibition: TEAD3, TAZ peptide; for EC50: TEAD3-TAZ HTRF, TR-FRET 665 nm/615 nm, read-out: TEAD3 TAZ HTRF combined: EC50
Outline: as §1

[8] = target: TEAD4 TAZ (amino acids 13-57) (Homo sapiens, UniProt Q15561); experiment: TEAD4-TAZ HTRF (TR-FRET) protein-protein interaction assay; details: for TEAD4 TAZ HTRF combined: Max % Inhibition: TEAD4, TAZ peptide; for EC50: TEAD4-TAZ HTRF, TR-FRET 665 nm/615 nm, read-out: TEAD4 TAZ HTRF combined: EC50
Outline: as §1

Sequence of TEAD4 YAP50-100 (Q15561 217-434 limits assumed): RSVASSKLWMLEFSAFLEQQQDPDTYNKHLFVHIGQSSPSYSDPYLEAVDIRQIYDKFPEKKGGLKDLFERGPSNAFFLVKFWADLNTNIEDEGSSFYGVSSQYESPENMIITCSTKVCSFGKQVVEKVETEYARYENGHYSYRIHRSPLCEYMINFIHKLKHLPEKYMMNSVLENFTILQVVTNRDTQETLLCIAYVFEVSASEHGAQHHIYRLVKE
Sequence of TEAD4 TAZ (amino acids 13-57) (Q15561 217-434 limits assumed): as above
Sequence of TEAD2 TAZ (amino acids 13-57) (Q15562 217-447): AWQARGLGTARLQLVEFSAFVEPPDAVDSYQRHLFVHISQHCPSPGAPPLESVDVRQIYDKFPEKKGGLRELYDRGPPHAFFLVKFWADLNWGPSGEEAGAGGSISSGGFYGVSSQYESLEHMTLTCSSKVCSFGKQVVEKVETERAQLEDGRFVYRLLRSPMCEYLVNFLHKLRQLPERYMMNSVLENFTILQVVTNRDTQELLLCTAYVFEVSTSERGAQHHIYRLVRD
Sequence of TEAD2 YAP50-100 (Q15562 217-447): as above
Sequence of TEAD1 TAZ (amino acids 13-57) (P28347 167-426 limits assumed): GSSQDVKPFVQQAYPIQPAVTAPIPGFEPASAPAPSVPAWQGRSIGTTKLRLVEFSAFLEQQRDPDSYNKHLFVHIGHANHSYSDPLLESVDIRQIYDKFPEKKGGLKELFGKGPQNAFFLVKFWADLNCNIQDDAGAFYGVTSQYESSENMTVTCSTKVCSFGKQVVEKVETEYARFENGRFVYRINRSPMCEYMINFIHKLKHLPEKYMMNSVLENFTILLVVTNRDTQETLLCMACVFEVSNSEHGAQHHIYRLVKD
Sequence of TEAD1 YAP50-100 (P28347 167-426 limits assumed): as above
Sequence of TEAD3 TAZ (amino acids 13-57) (Q99594 173-435 limits assumed): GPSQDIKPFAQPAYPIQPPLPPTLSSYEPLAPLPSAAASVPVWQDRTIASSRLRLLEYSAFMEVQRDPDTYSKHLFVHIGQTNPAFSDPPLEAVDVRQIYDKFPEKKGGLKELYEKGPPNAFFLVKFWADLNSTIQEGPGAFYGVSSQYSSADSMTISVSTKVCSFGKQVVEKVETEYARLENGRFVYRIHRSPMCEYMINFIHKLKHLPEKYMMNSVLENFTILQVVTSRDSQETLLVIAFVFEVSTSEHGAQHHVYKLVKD
Sequence of TEAD3 YAP50-100 (Q99594 173-435 limits assumed): as above

| Structure (SMILES) | TEAD1 YAP50-100 HTRF combined: Max % Inhibition [1] | EC50 [1] | TEAD4 YAP50-100 HTRF combined: Max % Inhibition [2] | EC50 [2] | TEAD3 YAP50-100 HTRF combined: Max % Inhibition [3] | EC50 [3] | TEAD2 YAP50-100 HTRF combined: Max % Inhibition [4] | EC50 [4] | TEAD1 TAZ HTRF combined: Max % Inhibition [5] | EC50 [5] | TEAD2 TAZ HTRF combined: Max % Inhibition [6] | EC50 [6] | TEAD3 TAZ HTRF combined: Max % Inhibition [7] | EC50 [7] | TEAD4 TAZ HTRF combined: Max % Inhibition [8] | EC50 [8] |
| --- | --- | --- | --- | --- | --- | --- | --- | --- | --- | --- | --- | --- | --- | --- | --- | --- |
| Cc1nccnc1-c1nn2c(=O)cc(-c3ccc(O[C@H](c4ccccc4)C(F)(F)F)cc3)[nH]c2c1C(=O)N1CC(CF)C1 [Compound 68, (R)-3-(3-(Fluoromethyl)azetidine-1-carbonyl)-2-(3-methylpyrazin-2-yl)-5-(4-(2,2,2-trifluoro-1-phenylethoxy)phenyl)pyrazolo[1,5-a]pyrimidin-7(4H)-one] | 65.0% | 190 nM | 64.5% | 5550 nM | 67.5% | 510 nM | 84.0% | 60 nM | 63.0% | 270 nM | 75.5% | 60 nM | 64.5% | 590 nM | 61.5% | 4950 nM |
| Cc1nccnc1-c1nn2c(=O)cc(-c3ccc(C4CCCC4)cc3)[nH]c2c1C(=O)N1C[C@H](CF)[C@@H]1C [Compound 69, 5-(4-Cyclopentylphenyl)-3-((2S,3S)-3-(fluoromethyl)-2-methylazetidine-1-carbonyl)-2-(3-methylpyrazin-2-yl)pyrazolo[1,5-a]pyrimidin-7(4H)-one] | 79.0% | 40 nM | 62.5% | 170 nM | 80.0% | 110 nM | 76.0% | 10 nM | 73.5% | 50 nM | 75.5% | 10 nM | 75.5% | 120 nM | 65.5% | 130 nM |
| CCCCCCC/C=C/c1cc(=O)n2nc(-c3nccnc3C)c(C(=O)N3C[C@H](CF)[C@@H]3C)c2[nH]1 [Compound 70, 3-((2S,3S)-3-(fluoromethyl)-2-methylazetidine-1-carbonyl)-2-(3-methylpyrazin-2-yl)-5-((E)-non-1-en-1-yl)pyrazolo[1,5-a]pyrimidin-7(4H)-one] | 58.0% | 10 nM | 58.0% | 1300 nM | 64.0% | 40 nM | 67.0% | – | 54.5% | 20 nM | 66.0% | 10 nM | 52.5% | 30 nM | 63.5% | 970 nM |
| CCCCCCCCCc1cc(=O)n2nc(-c3nccnc3C)c(C(=O)N3C[C@H](CF)[C@@H]3C)c2[nH]1 [Compound 71, 3-((2S,3S)-3-(fluoromethyl)-2-methylazetidine-1-carbonyl)-2-(3-methylpyrazin-2-yl)-5-nonylpyrazolo[1,5-a]pyrimidin-7(4H)-one] | 53.0% | 50 nM | 48.5% | 3450 nM | 61.0% | 60 nM | 64.0% | 10 nM | 52.5% | 50 nM | 64.0% | 10 nM | 49.0% | 50 nM | 56.5% | 3000 nM |
| [2H]C1([2H])C([2H])([2H])C([2H])([2H])C([2H])(c2ccc(-c3cc(=O)n4nc(-c5nccnc5C)c(C(=O)N5C[C@H](CF)[C@@H]5C)c4[nH]3)cc2)C([2H])([2H])C1([2H])[2H] [Compound 72, 3-[(2S,35)-3-(fluoromethyl)-2-methyl-azetidine-1-carbonyl]-2-(3-methylpyrazin-2-yl)-5-[4-(1,2,2,3,3,4,4,5,5,6,6-undecadeuteriocyclohexyl)phenyl]-4H-pyrazolo[1,5-a]pyrimidin-7-one] | 77.0% | 70 nM | 54.0% | 30 nM | 76.0% | 160 nM | 73.0% | 20 nM | 74.0% | 80 nM | 75.0% | 20 nM | 71.5% | 170 nM | 56.0% | 30 nM |
